Where two headings read alike, the source gives them in different places.
Columns and labels:
[1] = test system: estrogen receptor preparations from rat prostates; assay: Competitive 3H-estradiol binding, rat prostate cytosol estrogen receptor; settings: for Rat prost. ER(RBA): 3H-estradiol as ligand; for prost. ER/uterus ER: ratio of RBA rat prostate ER to rat uterus ER
Excerpt: (§1) In this case, it is assumed that ERβ predominates in the rat prostates over ERα, and ERα predominates in rat uteri over ERβ.

hERβ [2] = assay: Relative binding affinity to hERβ (Kuiper et al.); design: species or system human; settings: quotient of RBA hERβ to hERα
Excerpt: as §1

[3] = test system: estrogen receptor preparations from rat uteri; assay: Competitive 3H-estradiol binding, rat uterus cytosol estrogen receptor; settings: 3H-estradiol as ligand
Excerpt: as §1

hERβ [4] = settings: cited from earlier work
adult female rats = assay: Dissociation of action of the uterus and pituitary gland (uterus growth and ovulation); format: in vivo, rat; settings: s.c., four times on four consecutive days
Description: The studies with respect to the action on uterus growth and ovulation (indirect effect by influencing the secretion of pituitary gland hormones) are performed on adult female rats (body weight of 220-250 g). The substances are subcutaneously administered four times on four consecutive days. The first administration is carried out in the metestrus. One day after the last administration, the autopsy is carried out. The number of oocytes in the Fallopian tube (effect on the ovulation) as well as the uterus weight are determined.

| Structure (SMILES) | Rat prost. ER(RBA) ([1]; Table 1, estradiol = 100) | Rat uterus ER(RBA) ([3]; Table 1, estradiol = 100) | Rat prost. ER(RBA) ([1]; Table 2) | prost. ER/uterus ER ([1]; Table 2) | Rat uterus ER(RBA) ([3]; Table 2) | other results |
| --- | --- | --- | --- | --- | --- | --- |
| C[C@]12CC[C@H](O)CC1=CCC1C2CC[C@@]2(C)C1CC[C@@H]2O (stereo partly drawn) [5-Andro-stene-diol] | 5 | 0.1 | – | – | – | prost. ER/uterus ER ([1]; Table 1): 50; ERβ/ERα (hERβ [2]): 3; hERβ RBA* (hERβ [4]): 17 |
| C=C[C@@]12CCc3cc(O)ccc3[C@H]1CC[C@@]1(C)[C@H]2C[C@@H](F)[C@@H]1O [Compound 1, 8β-Vinyl-estra-1,3,5(10)-16α-fluoro-3,17β-diol] | – | – | 167 | 98 | 1.7 | – |
| C=C[C@@]12CCc3cc(O)ccc3[C@H]1CC[C@@]1(C)[C@H]2CC[C@@H]1O [Compound 2, 8β-Vinyl-estra-1,3,5(10)-3,17β-diol] | – | – | 63 | 90 | 0.7 | – |
| C[C@]12CCC3c4ccc(O)cc4CCC3C1CC[C@@H]2O (stereo partly drawn) [Estradiol] | 100 | 100 | – | – | – | ED50, dose-dependent ovulation inhibition and increase in uterus weight (adult female rats): 0.004 mg/kg of body weight |
| C[C@]12CC[C@@H]3c4ccc(O)cc4CC[C@H]3[C@@H]1C[C@@H](O)[C@@H]2O [Estriol] | – | – | – | – | – | hERβ RBA* (hERβ [4]; relative binding affinity, estradiol = 100, cited from Kuiper et al.): 21 |

From patent US20090029957A1, “8-BETA-SUBSTITUTED ESTRATRIENES AS SELECTIVELY ACTIVE ESTROGENS” (priority 2007, published 2009)
